Assay results: ChEMBL document CHEMBL4610023, “An amide-based sulfenamide prodrug of gamma secretase inhibitor BMS-708163 delivers parent drug from an oral conventional solid dosage form in male beagle dog” (Bioorg Med Chem Lett, 2020)
Converted amounts (≈) assume the structure as drawn.

Tests used:
[1] = AUC (0 to 24 hrs) in Beagle dog at 3 mg/kg, po; assay type: ADME, organism-based, Canis lupus familiaris; parameters: time < 24 hr, dose 3 mg/kg, route oral; conditions: in vivo
[2] = Tmax in Beagle dog at 3 mg/kg, po; assay type: ADME, organism-based, Canis lupus familiaris; conditions: in vivo
[3] = Drug concentration in Beagle dog plasma at 3 mg/kg, po measured at 24 hrs; assay type: ADME, organism-based, Canis lupus familiaris
[4] = Cmax in Beagle dog at 3 mg/kg, po; assay type: ADME, organism-based, Canis lupus familiaris; parameters: dose 3 mg/kg, route oral; conditions: in vivo
[5] = Aqueous solubility of compound at pH 6.5; assay type: physicochemical; conditions: aqueous solution
[6] = Chemical stability of compound in aqueous solution assessed as half life at 100 ug/ml and pH 4; assay type: physicochemical
[7] = Chemical stability of compound in aqueous solution assessed as half life at 100 ug/ml and pH 7.4; assay type: physicochemical
[8] = Chemical stability of compound in aqueous solution assessed as half life at 100 ug/ml and pH 1; assay type: physicochemical
[9] = Aqueous solubility of compound at pH 2; assay type: physicochemical; conditions: aqueous solution
[10] = Oral bioavailability in Beagle dog at 3 mg/kg; assay type: ADME, organism-based, Canis lupus familiaris; conditions: in vivo

Row | Compound | AUC(0-t) at 24 h [1] | Tmax [2] | concentration at 24 h [3] | Cmax [4] | solubility [5] | half-life at 100 ug/ml [6] | half-life at 100 ug/ml [7] | half-life at 100 ug/ml [8] | solubility [9] | bioavailability [10]
1 | NC(=O)[C@@H](CCC(F)(F)F)N(Cc1ccc(-c2ncon2)cc1F)S(=O)(=O)c1ccc(Cl)cc1 [AVAGACESTAT] | 5.25 to 14.6 µM·h | 1 to 2 h | 98 to 442 nM | 881 to 1150 nM | < 1 µg/mL | – | – | – | – | –
2 | NCCSNC(=O)[C@@H](CCC(F)(F)F)N(Cc1ccc(-c2ncon2)cc1F)S(=O)(=O)c1ccc(Cl)cc1 | – | – | – | – | 321 µg/mL (≈ 539 µM) | > 500 h | 52 h | > 500 h | > 10000 µg/mL | –
3 | COC(=O)[C@@H](N)CSNC(=O)[C@@H](CCC(F)(F)F)N(Cc1ccc(-c2ncon2)cc1F)S(=O)(=O)c1ccc(Cl)cc1 | 6.03 to 15.8 µM·h | 2 h | 90 to 474 nM | 707 to 1170 nM | 21 µg/mL (≈ 32.1 µM) | 185 h | 15 h | > 500 h | 3900 µg/mL (≈ 5960 µM) | 107 to 115%
4 | N[C@@H](CSNC(=O)[C@@H](CCC(F)(F)F)N(Cc1ccc(-c2ncon2)cc1F)S(=O)(=O)c1ccc(Cl)cc1)C(=O)O | – | – | – | – | 260 µg/mL (≈ 406 µM) | 418 h | 72 h | > 500 h | 510 µg/mL (≈ 797 µM) | –
5 | O=C(NSc1ccccc1)[C@@H](CCC(F)(F)F)N(Cc1ccc(-c2ncon2)cc1F)S(=O)(=O)c1ccc(Cl)cc1 | – | – | – | – | < 1 µg/mL | > 500 h | 268 h | > 500 h | < 1 µg/mL | –
6 | CCOC(=O)[C@@H](N)CSNC(=O)[C@@H](CCC(F)(F)F)N(Cc1ccc(-c2ncon2)cc1F)S(=O)(=O)c1ccc(Cl)cc1 | – | – | – | – | 10 µg/mL (≈ 15 µM) | 258 h | 23 h | > 500 h | 4300 µg/mL (≈ 6440 µM) | –
7 | N#CCCSNC(=O)[C@@H](CCC(F)(F)F)N(Cc1ccc(-c2ncon2)cc1F)S(=O)(=O)c1ccc(Cl)cc1 | – | – | – | – | < 1 µg/mL | > 500 h | 197 h | > 500 h | < 1 µg/mL | –
